Measurements published in US10954348B2, “Biocompatible nanoparticle and use thereof” (KYUNGPOOK NATIONAL UNIVERSITY INDUSTRY-ACADEMIC COOPERATION …, priority 2016, dated 2021).
Entries after “also recorded” stand apart in the source; their conditions may differ.

How the values were obtained:
[1] = test system: Colorectal cancer mouse tumor models (CT26 tumor model); experiment: In vivo tumor growth inhibition; conditions: CT26 tumor mice, 200 μg doxorubicin i.v. three times at intervals of two days, over 33 days, versus PBS blank group
Protocol: Experiments were conducted to compare and investigate the ability of doxorubicin-conjugated dextran-based nanoparticles whether the nanoparticles could be used as a therapeutic agent capable of inhibiting tumor growth. Colorectal cancer mouse tumor models (CT26 tumor model) were used as tumor models in the experiments. 5×10^6 cells were injected into the flank of mice, and after 10 days, the tumors were visually recognized, and the mice were used for the experiments. The experiments were started by dividing the animal models into a blank group treated with PBS, a group treated with free doxorubicin (free DOX), and a group treated with doxorubicin-conjugated PEG-DNP (DOX@PEG-DNP)). The number of mice corresponding to each group was three, and each administration material was administered to the mouse tumor models via intravenous injection three times at intervals of two days. Here, the amounts of doxorubicin administered to the group treated with free doxorubicin and the group treated with doxorubicin-conjugated PEG-DNP (DOX@PEG-DNP) were 200 μg.
The size of tumors and the weight of mice in the tumor model were checked over 33 days, and the measurement results were monitored and compared. […] As time passed, there was a slight difference in body weight among the groups, but this was thought to be due to the difference of tumor size in the respective groups.

[2] = type: in vivo; conditions: CT26 tumor mice, 200 μg doxorubicin i.v. three times at intervals of two days, over 33 days

With `COc1cccc2c1C(=O)c1c(O)c3c(c(O)c1C2=O)C[C@@](O)(C(=O)CO)C[C@@H]3O[C@H]1C[C@H](N)[C@H](O)[C@H](C)O1` [free doxorubicin, doxorubicin] as the compound, how does the tumor growth inhibition [1] read?
The tumor growth inhibition was “the tumor growth rate of only one of three mice was not inhibited; also recorded: surely inhibited the tumor growth rate compared with the blank group”.

What about the body weight change [2] of the same compound?
Its body weight change is “the body weight was not rapidly reduced”.
